# Earlier results in patent US20140370105A1, “TREATMENT OF INFLAMMATORY BOWEL DISEASE WITH 6-MERCAPTOPURINE” (Teva Pharmaceutical Industries, Ltd., priority 2008, published 2014).
# System: inflammatory bowel disease
# Settings: conventional therapy
structure (smiles),measurement,setting,value
"Sc1ncnc2nc[nH]c12 [6-MP, 6-mercaptopurine]",time required to be effective / show effect,IBD / Crohn's disease patients,3-4 months
same,time required to show any benefit,IBD patients,at least 12 weeks
